Reference: US6737383B1, “Herbicidal oxadiazolidines” (priority 1999, dated 2004)

Columns and labels:
[1] = tested on: pigweed; assay: Test B pre/postemergence pigweed; format: in vivo, Amaranthus retroflexus
In short: (§1)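 Test chemicals in a non-phytotoxic solvent mixture with surfactant were sprayed preemergence onto planted seeds and postemergence onto plants 2 to 18 cm tall (1- to 4-leaf stage). After twelve to sixteen days in a greenhouse, injury was visually rated against untreated controls from 0 (no effect) to 10 (complete control).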

[2] = tested on: bedstraw; assay: Test B pre/postemergence bedstraw; format: in vivo, Galium aparine
In short: as §1

[3] = tested on: cocklebur; assay: Test B pre/postemergence cocklebur; format: in vivo, Xanthium strumarium
In short: as §1

[4] = tested on: blackgrass; assay: Test B pre/postemergence blackgrass; format: in vivo, Alopecurus myosuroides
In short: as §1

[5] = tested on: velvetleaf; assay: Test B pre/postemergence velvetleaf; format: in vivo, Abutilon theophrasti; details: for Plant response rating, Velvetleaf: Rate 250 g/ha
In short: as §1

[6] = tested on: soybean; assay: Test B pre/postemergence soybean; format: in vivo, Glycine max
In short: as §1

[7] = tested on: wheat; assay: Test B pre/postemergence wheat; format: in vivo, Triticum aestivum; details: for Plant response rating, Wheat: Rate 250 g/ha
In short: as §1

[8] = tested on: crabgrass; assay: Test B pre/postemergence crabgrass; format: in vivo, Digitaria sanguinalis
In short: as §1

[9] = tested on: corn; assay: Test B pre/postemergence corn; format: in vivo, Zea mays
In short: as §1

[10] = tested on: giant foxtail; assay: Test B pre/postemergence giant foxtail; format: in vivo, Setaria faberii
In short: as §1

[11] = tested on: morningglory; assay: Test B pre/postemergence morningglory; format: in vivo, Ipomoea hederacea
In short: as §1

[12] = tested on: rape; assay: Test B pre/postemergence rape; format: in vivo, Brassica napus
In short: as §1

[13] = tested on: wild oat; assay: Test B pre/postemergence wild oat; format: in vivo, Avena fatua; details: for Plant response rating, Wild oats: Rate 250 g/ha
In short: as §1

[14] = tested on: surinam grass; assay: Test B pre/postemergence surinam grass; format: in vivo, Brachiaria decumbens
In short: as §1

[15] = tested on: purple nutsedge; assay: Test B pre/postemergence purple nutsedge; format: in vivo, Cyperus rotundus
In short: as §1

[16] = Postemergence, Rate 62 g/ha, scale 0 to 10, 0 is no effect, 10 is complete control
[17] = Postemergence, Rate 125 g/ha, scale of 0 to 10 where 0 is no effect and 10 is complete control
[18] = Preemergence, Rate 125 g/ha, scale 0 to 10 (0 no effect, 10 complete control)
[19] = Preemergence, Rate 250 g/ha, scale of 0 to 10 where 0 is no effect and 10 is complete control
[20] = Preemergence, Rate 500 g/ha, scale 0 (no effect) to 10 (complete control)
[21] = Rate 250 g/ha, Postemergence, scale 0 to 10, 0 is no effect, 10 is complete control
[22] = Rate 500 g/ha, Postemergence, scale 0 to 10, 0 no effect, 10 complete control
[23] = Postemergence, Rate 250 g/ha, scale 0 to 10, 0 no effect, 10 complete control
[24] = Preemergence, Rate 62 g/ha, scale 0 to 10 (0 no effect, 10 complete control)
[25] = Rate 125 g/ha, Postemergence, scale 0 to 10, 0 no effect, 10 complete control
[26] = Preemergence, Rate 125 g/ha, 0 is no effect, 10 is complete control
[27] = Preemergence, scale of 0 to 10 where 0 is no effect and 10 is complete control
[28] = Postemergence, scale 0 to 10, 0 is no effect, 10 is complete control

Cc1nn(C)c(Cl)c1-n1c(=O)on(C(=O)N(c2ccc(F)cc2F)C(C)C)c1=O [Compound 96]
Redroot pigweed plant response rating [1, 16]: 0
Redroot pigweed plant response rating [1, 17]: 0
Plant response rating, Redroot pigweed [1, 18]: 6
Plant response rating, Redroot pigweed [1, 19]: 7
Redroot pigweed plant response rating [1, 20]: 8
Plant response rating, Redroot pigweed [1, 21]: 0
Redroot pigweed plant response rating [1, 22]: 0
Bedstraw plant response rating [2, 16]: 0
Bedstraw plant response rating [2, 23]: 0
Bedstraw plant response rating [2, 24]: 0
Plant response rating, Bedstraw [2, 18]: 0
Plant response rating, Bedstraw [2, 19]: 0
Bedstraw plant response rating [2, 20]: 2
Bedstraw plant response rating [2, 25]: 0
Bedstraw plant response rating [2, 22]: 0
Cocklebur plant response rating [3, 16]: 0
Cocklebur plant response rating [3, 17]: 0
Cocklebur plant response rating [3, 23]: 0
Cocklebur plant response rating [3, 24]: 0
Plant response rating, Cocklebur [3, 18]: 0
Plant response rating, Cocklebur [3, 19]: 0
Cocklebur plant response rating [3, 20]: 0
Cocklebur plant response rating [3, 22]: 2
Blackgrass plant response rating [4, 16]: 0
Blackgrass plant response rating [4, 17]: 0
Blackgrass plant response rating [4, 23]: 0
Blackgrass plant response rating [4, 24]: 0
Plant response rating, Blackgrass [4, 18]: 3
Plant response rating, Blackgrass [4, 19]: 3
Blackgrass plant response rating [4, 20]: 8
Blackgrass plant response rating [4, 22]: 0
Velvetleaf plant response rating [5, 16]: 0
Velvetleaf plant response rating [5, 17]: 0
Velvetleaf plant response rating [5, 24]: 0
Velvetleaf plant response rating (0 to 10 scale) [5, 26]: 0
Plant response rating, Velvetleaf [5, 27]: 0
Velvetleaf plant response rating [5, 20]: 0
Plant response rating, Velvetleaf [5, 28]: 0
Velvetleaf plant response rating [5, 22]: 0
Soybean plant response rating [6, 16]: 1
Soybean plant response rating [6, 17]: 1
Soybean plant response rating [6, 24]: 0
Plant response rating, Soybean [6, 18]: 0
Plant response rating, Soybean [6, 19]: 0
Soybean plant response rating [6, 20]: 0
Plant response rating, Soybean [6, 21]: 1
Soybean plant response rating [6, 22]: 1
Wheat plant response rating [7, 16]: 0
Wheat plant response rating [7, 17]: 0
Wheat plant response rating [7, 24]: 0
Wheat plant response rating (0 to 10 scale) [7, 26]: 0
Plant response rating, Wheat [7, 27]: 0
Wheat plant response rating [7, 20]: 0
Plant response rating, Wheat [7, 28]: 0
Wheat plant response rating [7, 22]: 0
Crabgrass plant response rating [8, 16]: 1
Crabgrass plant response rating [8, 17]: 3
Crabgrass plant response rating [8, 23]: 3
Crabgrass plant response rating [8, 24]: 1
Plant response rating, Crabgrass [8, 18]: 4
Plant response rating, Crabgrass [8, 19]: 7
Crabgrass plant response rating [8, 20]: 9
Crabgrass plant response rating [8, 22]: 8
Corn plant response rating [9, 16]: 0
Corn plant response rating [9, 17]: 0
Corn plant response rating [9, 23]: 0
Corn plant response rating [9, 24]: 0
Plant response rating, Corn [9, 18]: 0
Plant response rating, Corn [9, 19]: 0
Corn plant response rating [9, 20]: 0
Corn plant response rating [9, 22]: 0
Giant foxtail plant response rating [10, 16]: 0
Giant foxtail plant response rating [10, 17]: 0
Giant foxtail plant response rating [10, 23]: 0
Giant foxtail plant response rating [10, 24]: 2
Plant response rating, Giant foxtail [10, 18]: 2
Plant response rating, Giant foxtail [10, 19]: 3
Giant foxtail plant response rating [10, 20]: 8
Giant foxtail plant response rating [10, 22]: 3
Morningglory plant response rating [11, 16]: 1
Morningglory plant response rating [11, 17]: 1
Morningglory plant response rating [11, 23]: 1
Morningglory plant response rating [11, 24]: 0
Plant response rating, Morningglory [11, 18]: 0
Plant response rating, Morningglory [11, 19]: 0
Morningglory plant response rating [11, 20]: 0
Morningglory plant response rating [11, 22]: 2
Rape plant response rating [12, 16]: 0
Rape plant response rating [12, 17]: 0
Rape plant response rating [12, 23]: 0
Rape plant response rating [12, 24]: 0
Plant response rating, Rape [12, 18]: 0
Plant response rating, Rape [12, 19]: 0
Rape plant response rating [12, 20]: 3
Rape plant response rating [12, 22]: 0
Wild oats plant response rating [13, 16]: 0
Wild oats plant response rating [13, 17]: 0
Wild oats plant response rating [13, 24]: 0
Wild oats plant response rating (0 to 10 scale) [13, 26]: 0
Plant response rating, Wild oats [13, 27]: 2
Wild oats plant response rating [13, 20]: 7
Plant response rating, Wild oats [13, 28]: 0
Wild oats plant response rating [13, 22]: 0
B. signalgrass plant response rating [14, 16]: 0
B. signalgrass plant response rating [14, 23]: 0
B. signalgrass plant response rating [14, 24]: 0
Plant response rating, B. signalgrass [14, 18]: 0
Plant response rating, B. signalgrass [14, 19]: 1
B. signalgrass plant response rating [14, 20]: 2
B. signalgrass plant response rating [14, 25]: 0
B. signalgrass plant response rating ([14]; Rate 500 g/ha, Postemergence, scale of 0 to 10 where 0 is no effect and 10 is complete control): 0
Nutsedge plant response rating [15, 16]: 0
Nutsedge plant response rating [15, 17]: 0
Nutsedge plant response rating [15, 23]: 0
Nutsedge plant response rating [15, 24]: 0
Plant response rating, Nutsedge [15, 18]: 0
Plant response rating, Nutsedge [15, 19]: 0
Nutsedge plant response rating [15, 20]: 0
Nutsedge plant response rating [15, 22]: 0
